Experimental data published in ChEMBL document CHEMBL1201862, “PubChem BioAssay data set” (2004).
Calls of active or inactive are those of the source.

How the values were obtained:
[1] = biological target: G-protein coupled receptor 55 (Homo sapiens, UniProt Q9Y2T6); experiment: GPR55 antagonists blocking LPI-driven arrestin recruitment, primary screen, imaging, U2OS, beta-arrestin-GFP, LPI agonist (AID 2013); format: functional;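 further: antagonist potency measured as reduced agonist-driven arrestin aggregation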
Chain of G-protein coupled receptor 55 (Q9Y2T6 whole entry, the tested form may be a part): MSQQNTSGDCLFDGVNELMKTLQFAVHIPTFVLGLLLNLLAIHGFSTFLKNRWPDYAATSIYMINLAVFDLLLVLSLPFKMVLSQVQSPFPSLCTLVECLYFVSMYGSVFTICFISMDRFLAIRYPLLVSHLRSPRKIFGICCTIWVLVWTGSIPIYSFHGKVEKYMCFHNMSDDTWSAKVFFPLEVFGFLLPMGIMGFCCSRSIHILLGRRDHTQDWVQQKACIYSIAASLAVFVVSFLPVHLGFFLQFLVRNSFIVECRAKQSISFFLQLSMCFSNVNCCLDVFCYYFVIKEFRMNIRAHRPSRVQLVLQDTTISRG

[2] = biological target: T1, RNA-binding protein pos-1 (Caenorhabditis elegans, UniProt G5EF15); experiment: inhibitors of POS-1/mex-3 RNA binding, dose response, biochemical, fluorescence polarization (AID 1964);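 further: purified POS-1 fused to maltose binding protein made in E. coli; potency of compounds blocking POS-1 binding to fluorescent RNA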
T1 sequence (G5EF15 whole entry): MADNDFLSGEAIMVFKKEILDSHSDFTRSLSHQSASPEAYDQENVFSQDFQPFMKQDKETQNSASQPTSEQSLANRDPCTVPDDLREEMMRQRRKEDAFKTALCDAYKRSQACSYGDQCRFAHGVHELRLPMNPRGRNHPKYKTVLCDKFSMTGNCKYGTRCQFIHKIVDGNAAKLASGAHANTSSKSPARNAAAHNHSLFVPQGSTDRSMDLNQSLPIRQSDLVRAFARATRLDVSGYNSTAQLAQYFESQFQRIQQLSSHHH

[3] = biological target: T2, Zinc finger protein mex-5 (Caenorhabditis elegans, UniProt Q9XUB2); experiment: MEX-5/TCR-2 RNA interaction inhibitors, dose response, biochemical, C. elegans, fluorescence polarization (AID 1960)
T2 sequence (Q9XUB2 whole entry): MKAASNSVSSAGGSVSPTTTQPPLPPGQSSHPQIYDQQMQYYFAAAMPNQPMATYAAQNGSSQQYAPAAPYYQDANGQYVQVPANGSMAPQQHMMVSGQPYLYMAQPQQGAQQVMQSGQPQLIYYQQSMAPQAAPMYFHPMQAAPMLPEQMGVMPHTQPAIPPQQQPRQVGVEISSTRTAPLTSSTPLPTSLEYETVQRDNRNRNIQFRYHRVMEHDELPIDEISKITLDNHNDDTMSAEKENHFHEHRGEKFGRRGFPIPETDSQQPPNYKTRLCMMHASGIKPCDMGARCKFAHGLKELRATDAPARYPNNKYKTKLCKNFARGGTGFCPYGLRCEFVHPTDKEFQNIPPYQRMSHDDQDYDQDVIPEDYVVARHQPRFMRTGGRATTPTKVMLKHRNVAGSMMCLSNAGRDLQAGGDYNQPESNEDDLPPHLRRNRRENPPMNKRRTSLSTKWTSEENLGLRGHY

[4] = biological target: DNA dC->dU-editing enzyme APOBEC-3G (Homo sapiens, UniProt Q9HC16); format: functional;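 further: Dose-response counterscreen measuring inhibition of APOBEC3G DNA deaminase activity, run while confirming APOBEC3A inhibitors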
Chain of DNA dC->dU-editing enzyme APOBEC-3G (Q9HC16 whole entry): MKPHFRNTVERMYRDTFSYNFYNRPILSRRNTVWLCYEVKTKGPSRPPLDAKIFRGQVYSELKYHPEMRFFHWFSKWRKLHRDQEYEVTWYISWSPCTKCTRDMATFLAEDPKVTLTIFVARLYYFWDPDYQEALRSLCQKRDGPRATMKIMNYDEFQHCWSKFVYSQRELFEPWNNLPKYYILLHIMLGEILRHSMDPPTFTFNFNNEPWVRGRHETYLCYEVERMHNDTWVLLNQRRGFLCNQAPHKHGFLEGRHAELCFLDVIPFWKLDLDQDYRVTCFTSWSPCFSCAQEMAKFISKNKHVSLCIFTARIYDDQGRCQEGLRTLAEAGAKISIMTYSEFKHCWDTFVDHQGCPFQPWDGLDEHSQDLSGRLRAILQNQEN

[5] = biological target: DNA dC->dU-editing enzyme APOBEC-3A (Homo sapiens, UniProt P31941); experiment: Dose Response confirmation of small molecule APOBEC3A DNA Deaminase Inhibitors via a fluorescence-based single-stranded DNA deaminase assay. [Related pubchem assays (depositor defined):AID493011, AID493024]; format: functional
Chain of DNA dC->dU-editing enzyme APOBEC-3A (P31941 whole entry): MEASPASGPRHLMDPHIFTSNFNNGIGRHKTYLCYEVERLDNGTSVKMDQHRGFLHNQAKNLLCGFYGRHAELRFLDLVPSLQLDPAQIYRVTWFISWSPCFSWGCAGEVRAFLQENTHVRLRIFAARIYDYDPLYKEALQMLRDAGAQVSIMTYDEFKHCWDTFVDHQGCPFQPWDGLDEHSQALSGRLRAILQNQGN

[6] = inhibitors of intracellular T. cruzi replication, confirmation, NIH3T3 host cells, beta-gal luminescence (AID 2044); format: functional, cell-based;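 further: intracellular parasites grown in NIH/3T3 mouse fibroblasts as host cells; luminescent beta-galactosidase reporter signal from transgenic T. cruzi replicating inside host cells; inhibitors lower the luminescence signal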
[7] = cytotoxicity toward NIH3T3 fibroblasts, dose response, counter-screen, cell-based, ATP luminescence, mouse fibroblasts (AID 2010); format: functional;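 further: cells exposed to compound for about 90 hours before reading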
Leucine aminopeptidase = biological target: T3, Leucine aminopeptidase (Plasmodium falciparum 3D7, UniProt Q8IL11); experiment: P. falciparum M17LAP inhibitors, primary screen, biochemical, fluorogenic H-Leu-NHMec substrate, 1536-well (AID 1619); format: functional
T3 sequence (Q8IL11 whole entry): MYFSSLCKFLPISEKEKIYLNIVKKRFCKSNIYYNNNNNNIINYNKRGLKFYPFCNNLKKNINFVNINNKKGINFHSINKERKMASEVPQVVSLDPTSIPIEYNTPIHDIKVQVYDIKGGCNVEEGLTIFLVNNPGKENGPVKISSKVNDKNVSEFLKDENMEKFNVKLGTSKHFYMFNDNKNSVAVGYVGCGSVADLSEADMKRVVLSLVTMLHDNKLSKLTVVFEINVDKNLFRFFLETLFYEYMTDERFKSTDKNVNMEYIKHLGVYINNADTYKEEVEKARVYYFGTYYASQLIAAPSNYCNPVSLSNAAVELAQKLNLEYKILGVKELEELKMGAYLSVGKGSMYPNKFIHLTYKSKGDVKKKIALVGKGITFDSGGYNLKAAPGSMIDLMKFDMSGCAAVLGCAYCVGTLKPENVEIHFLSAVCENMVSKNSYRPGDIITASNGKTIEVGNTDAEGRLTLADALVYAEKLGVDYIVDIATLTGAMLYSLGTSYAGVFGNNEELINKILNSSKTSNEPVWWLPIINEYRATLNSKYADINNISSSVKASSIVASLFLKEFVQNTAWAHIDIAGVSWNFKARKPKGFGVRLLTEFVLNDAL

[8] = control 3'UTR Renilla luciferase suppression, dose response, counter-screen for Shn3 inhibitor project, cell-based, Clone20-Shn3RL, cherry-picked (AID 624133); format: functional
[9] = HepG2 cell cytotoxicity, dose response, cytotoxicity control for Shn3 inhibitor project, CellTiter-Glo, cherry-picked (AID 624134); format: functional, cell-based
Cytochrome P450 2C9 = Cytochrome P450 2C9 (Homo sapiens, UniProt P11712)
Chain of Cytochrome P450 2C9 (P11712 whole entry): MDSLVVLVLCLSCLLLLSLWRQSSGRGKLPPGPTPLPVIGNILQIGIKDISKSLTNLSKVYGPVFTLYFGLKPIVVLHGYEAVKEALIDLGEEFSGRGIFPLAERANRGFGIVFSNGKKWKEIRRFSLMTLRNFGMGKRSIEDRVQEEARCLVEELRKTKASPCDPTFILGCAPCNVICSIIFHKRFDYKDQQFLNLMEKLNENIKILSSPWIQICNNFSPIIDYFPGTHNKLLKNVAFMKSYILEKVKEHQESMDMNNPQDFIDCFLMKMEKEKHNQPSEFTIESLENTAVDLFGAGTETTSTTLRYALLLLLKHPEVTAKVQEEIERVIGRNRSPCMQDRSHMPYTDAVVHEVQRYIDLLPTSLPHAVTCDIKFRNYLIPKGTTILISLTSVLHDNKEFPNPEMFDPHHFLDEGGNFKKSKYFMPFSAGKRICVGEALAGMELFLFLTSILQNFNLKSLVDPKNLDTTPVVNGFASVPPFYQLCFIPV

[10] = Intein inhibitors as potential Tuberculosis drugs, a cytotoxicity screen. [Related pubchem assays (depositor defined):AID2221, AID2223, AID434968, AID435010, AID449749, AID449750, AID489010]; format: functional
[11] = C. albicans growth with fluconazole, confirmation, fluorescence, retest (AID 2467); format: functional, cell-based
[12] = biological target: T4, Replicative DNA helicase DnaB (Mycobacterium tuberculosis, UniProt P9WMR3); experiment: DnaB intein splicing inhibitors, dose response, biochemical, cell-free fluorescence (AID 449749); format: functional
T4 sequence (P9WMR3 whole entry): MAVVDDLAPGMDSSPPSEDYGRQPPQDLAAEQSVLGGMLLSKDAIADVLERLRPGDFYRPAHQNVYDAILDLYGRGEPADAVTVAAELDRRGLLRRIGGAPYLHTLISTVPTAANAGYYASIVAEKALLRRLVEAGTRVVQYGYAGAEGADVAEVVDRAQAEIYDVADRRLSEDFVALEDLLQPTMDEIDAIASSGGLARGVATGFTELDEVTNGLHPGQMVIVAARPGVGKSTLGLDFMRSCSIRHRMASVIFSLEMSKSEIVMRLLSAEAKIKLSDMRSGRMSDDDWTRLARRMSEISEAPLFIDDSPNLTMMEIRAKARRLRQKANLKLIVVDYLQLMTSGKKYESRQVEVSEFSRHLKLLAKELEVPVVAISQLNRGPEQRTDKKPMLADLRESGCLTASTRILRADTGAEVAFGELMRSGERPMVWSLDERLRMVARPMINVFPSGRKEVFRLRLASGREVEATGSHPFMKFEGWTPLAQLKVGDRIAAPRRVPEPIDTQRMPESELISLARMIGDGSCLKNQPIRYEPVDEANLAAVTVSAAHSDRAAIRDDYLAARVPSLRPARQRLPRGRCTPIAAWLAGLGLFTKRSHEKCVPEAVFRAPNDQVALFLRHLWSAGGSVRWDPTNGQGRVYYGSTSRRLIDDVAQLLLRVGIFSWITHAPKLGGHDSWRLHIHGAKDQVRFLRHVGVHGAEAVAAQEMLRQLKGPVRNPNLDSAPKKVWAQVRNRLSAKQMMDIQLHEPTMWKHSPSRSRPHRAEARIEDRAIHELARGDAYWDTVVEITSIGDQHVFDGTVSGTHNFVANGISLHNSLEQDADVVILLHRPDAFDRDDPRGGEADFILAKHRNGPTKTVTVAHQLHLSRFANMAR

Protein RecA = biological target: T5, Protein RecA (Mycobacterium tuberculosis, UniProt P9WHJ3); experiment: Fluorescence Cell-Free Homogeneous Dose Retest to Identify Inhibitors of RecA-Intein Splicing Activity. [Related pubchem assays (depositor defined):AID2097, AID2223, AID489010, AID492950]; format: functional
T5 sequence (P9WHJ3 whole entry): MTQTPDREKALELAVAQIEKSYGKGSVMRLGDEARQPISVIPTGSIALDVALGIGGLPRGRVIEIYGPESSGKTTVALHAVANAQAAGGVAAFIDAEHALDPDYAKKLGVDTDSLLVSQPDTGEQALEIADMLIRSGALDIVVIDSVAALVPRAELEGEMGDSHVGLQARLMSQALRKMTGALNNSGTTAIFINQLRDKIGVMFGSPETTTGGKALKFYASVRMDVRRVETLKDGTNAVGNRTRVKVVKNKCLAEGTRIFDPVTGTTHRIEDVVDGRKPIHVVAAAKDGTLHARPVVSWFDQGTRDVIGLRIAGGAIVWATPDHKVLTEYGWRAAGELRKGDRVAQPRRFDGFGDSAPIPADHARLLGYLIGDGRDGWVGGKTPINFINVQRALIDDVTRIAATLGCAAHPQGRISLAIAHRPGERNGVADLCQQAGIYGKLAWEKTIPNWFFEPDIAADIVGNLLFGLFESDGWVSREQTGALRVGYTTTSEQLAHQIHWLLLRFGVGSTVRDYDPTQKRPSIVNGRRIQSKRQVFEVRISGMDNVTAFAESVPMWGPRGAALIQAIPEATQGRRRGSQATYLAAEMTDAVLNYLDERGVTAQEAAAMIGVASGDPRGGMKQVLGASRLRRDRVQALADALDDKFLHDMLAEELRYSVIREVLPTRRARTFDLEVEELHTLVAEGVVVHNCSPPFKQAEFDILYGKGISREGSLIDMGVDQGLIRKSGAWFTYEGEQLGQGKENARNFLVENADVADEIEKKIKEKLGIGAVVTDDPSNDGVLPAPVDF

[13] = biological target: Heat shock protein HSP 90-alpha (Homo sapiens, UniProt P07900); format: functional, organism-based
[14] = Shn3 3'UTR reporter inhibitors, dose response, cell-based, Clone20 osteoblasts, firefly luciferase, cherry-picked (AID 624132); format: functional;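 further: firefly luciferase luminescence from reporter carrying the Shn3 3'UTR in osteoblasts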
[15] = NIH-3T3 fibroblast cytotoxicity, dose response, cytotoxicity control, cell-based, fluorescence, Alamar Blue, secondary assay (AID 2327); format: functional;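 further: NIH-3T3 mouse fibroblasts cultured with fluconazole at 8 µg/mL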
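Wherever CC50 is given: cells exposed to compound for 72 hours before luminescence readout.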

COc1ccc(N2C(=O)NC(=O)/C(=C\c3c[nH]c4ccc(Br)cc34)C2=O)c(OC)c1
IC50 [1]: 1.66 µM (active) | EC50 [2]: > 300 µM (inconclusive) | EC50 [3]: > 300 µM (inconclusive)

Cc1ccc(OCC(=O)Nc2ccc(S(=O)(=O)N(C)C3CCN(C)CC3)cc2)c(C)c1
IC50 [4]: 6.95 µM (active) | IC50 [5]: 3.31 µM (active) | EC50 [6]: 0.32 µM (active) | EC50 [7]: > 60 µM (not active)

O=C(O)c1cccc(-n2cccc2/C=C2/NC(=O)N(Cc3ccccc3F)C2=O)c1
IC50 (Leucine aminopeptidase): 53.2 µM (active) | IC50 [4]: 42.9 µM (active) | EC50 [2]: > 300 µM (not active) | IC50 [5]: 14.9 µM (active) | EC50 [3]: > 300 µM (not active)

O=C(OCn1ncc(Cl)c(Cl)c1=O)c1cccc(C(F)(F)F)c1
AC50 [8]: 7.88 µM (active) | AC50 [9]: 49.7 µM (active) | AC50 (Cytochrome P450 2C9): inconclusive | CC50 [10]: 8.16 µM (active) | EC50 [11]: 0.781 µM (active) | AC50 [12]: 1.44 µM (active) | EC50 (Protein RecA): 0.19 µM (active) | AC50 [13]: 4.11 µM (active) | AC50 [14]: 3.74 µM (active) | EC50 [15]: 5.31 µM (inconclusive)
